ChEMBL document CHEMBL3046832, “Synthesis of some sulfonamides, disubstituted sulfonylureas or thioureas and some structurally related variants. A class of promising antitumor agents” (2007)

Tests used:
Format in all cases: functional
[1] = Cytotoxicity against Homo sapiens (human) renal cancer cells after 48 hr by SRB assay; conditions: Cancer cell lines
SF-295 = assay: Cytotoxicity against Homo sapiens (human) SF295 cells after 48 hr by SRB assay; conditions: SF-295, 48 h
[2] = Cytotoxicity against Homo sapiens (human) non-small cell lung cancer cells after 48 hr by SRB assay; conditions: Cancer cell lines
OVCAR-8 = assay: Cytotoxicity against Homo sapiens (human) OVCAR8 cells after 48 hr by SRB assay; conditions: OVCAR-8, 48 h
SK-OV-3 = assay: Cytotoxicity against Homo sapiens (human) SKOV3 cells after 48 hr by SRB assay; conditions: SK-OV-3, 48 h
CCRF-CEM = assay: Cytotoxicity against Homo sapiens (human) CCRF-CEM cells after 48 hr by SRB assay
COLO 205 = assay: Cytotoxicity against Homo sapiens (human) COLO205 cells after 48 hr by SRB assay; conditions: COLO 205, 48 h
DU-145 = assay: Cytotoxicity against Homo sapiens (human) DU145 cells after 48 hr by SRB assay; conditions: DU-145, 48 h
U-251 = assay: Cytotoxicity against Homo sapiens (human) U251 cells after 48 hr by SRB assay; conditions: U-251, 48 h
SF-268 = assay: Cytotoxicity against Homo sapiens (human) SF268 cells assessed as cellular growth after 48 hr by Alamar blue assay; design: concentration or dose not given beside the values
NCI-H522 = assay: Cytotoxicity against Homo sapiens (human) NCI-H522 cells after 48 hr by SRB assay; conditions: NCI-H522, 48 h
MCF7 [3] = assay: Cytotoxicity against Homo sapiens (human) MCF7 cells after 48 hr by SRB assay; conditions: MCF7, 48 h
CAKI-1 = assay: Cytotoxicity against Homo sapiens (human) Caki1 cells after 48 hr by SRB assay; conditions: CAKI-1, 48 h
786-0 = assay: Cytotoxicity against Homo sapiens (human) 786-0 cells after 48 hr by SRB assay; conditions: 786-0, 48 h
MDA-MB-231 = assay: Cytotoxicity against Homo sapiens (human) MDA-MB-231 cells after 48 hr by SRB assay; conditions: MDA-MB-231, 48 h
KM12 = assay: Cytotoxicity against Homo sapiens (human) KM12 cells after 48 hr by SRB assay; conditions: KM12, 48 h
MCF7 [4] = assay: Cytotoxicity against Homo sapiens (human) MCF7 cells assessed as cellular growth after 48 hr by Alamar blue assay; design: concentration or dose not given beside the values
T47D = assay: Cytotoxicity against Homo sapiens (human) T47D cells after 48 hr by SRB assay
[5] = Cytotoxicity against Homo sapiens (human) leukemia cells after 48 hr by SRB assay; conditions: Leukemia cell
RXF 393 = assay: Cytotoxicity against Homo sapiens (human) RXF393 cells after 48 hr by SRB assay; conditions: RXF 393, 48 h
[6] = Cytotoxicity against Homo sapiens (human) melanoma cells after 48 hr by SRB assay; conditions: Melanoma cell
SNB-75 = assay: Cytotoxicity against Homo sapiens (human) SNB75 cells after 48 hr by SRB assay; conditions: SNB-75, 48 h
IGROV-1 = assay: Cytotoxicity against Homo sapiens (human) IGROV1 cells after 48 hr by SRB assay; conditions: IGROV-1, 48 h
HCT-15 = assay: Cytotoxicity against Homo sapiens (human) HCT15 cells after 48 hr by SRB assay; conditions: HCT-15, 48 h
[7] = Cytotoxicity against Homo sapiens (human) ovarian cancer cells after 48 hr by SRB assay; conditions: Cancer cell lines
UO-31 = assay: Cytotoxicity against Homo sapiens (human) UO31 cells after 48 hr by SRB assay; conditions: UO-31, 48 h
HOP-62 = assay: Cytotoxicity against Homo sapiens (human) HOP62 cells after 48 hr by SRB assay; conditions: HOP-62, 48 h
EKVX = assay: Cytotoxicity against Homo sapiens (human) EKVX cells after 48 hr by SRB assay
[8] = Cytotoxicity against Homo sapiens (human) prostate cancer cells after 48 hr by SRB assay; conditions: Cancer cell lines
SW-620 = assay: Cytotoxicity against Homo sapiens (human) SW620 cells after 48 hr by SRB assay; conditions: SW-620, 48 h
HOP-92 = assay: Cytotoxicity against Homo sapiens (human) HOP92 cells after 48 hr by SRB assay; conditions: HOP-92, 48 h
NCI-H23 = assay: Cytotoxicity against Homo sapiens (human) NCI-H23 cells after 48 hr by SRB assay; conditions: NCI-H23, 48 h
OVCAR-5 = assay: Cytotoxicity against Homo sapiens (human) OVCAR5 cells after 48 hr by SRB assay; conditions: OVCAR-5, 48 h
MDA-MB-435 = assay: Cytotoxicity against Homo sapiens (human) MDA-MB-435 cells after 48 hr by SRB assay; conditions: MDA-MB-435, 48 h
UACC-257 = assay: Cytotoxicity against Homo sapiens (human) UACC257 cells after 48 hr by SRB assay; conditions: UACC-257, 48 h
NCI-H460 [9] = assay: Cytotoxicity against Homo sapiens (human) NCI-H460 cells after 48 hr by SRB assay; conditions: NCI-H460, 48 h
NCI-H460 [10] = assay: Cytotoxicity against Homo sapiens (human) NCI-H460 cells assessed as cellular growth after 48 hr by Alamar blue assay; design: concentration or dose not given beside the values
A549 = assay: Cytotoxicity against Homo sapiens (human) A549 cells after 48 hr by SRB assay; conditions: A549, 48 h
MOLT-4 = assay: Cytotoxicity against Homo sapiens (human) MOLT4 cells after 48 hr by SRB assay; conditions: MOLT-4, 48 h
HT-29 = assay: Cytotoxicity against Homo sapiens (human) HT-29 cells after 48 hr by SRB assay; conditions: HT-29, 48 h
[11] = Cytotoxicity against Homo sapiens (human) colon cancer cells after 48 hr by SRB assay; conditions: Cancer cell lines
SK-MEL-28 = assay: Cytotoxicity against Homo sapiens (human) SK-MEL-28 cells after 48 hr by SRB assay; conditions: SK-MEL-28, 48 h
HCC 2998 = assay: Cytotoxicity against Homo sapiens (human) HCC2998 cells after 48 hr by SRB assay; conditions: HCC 2998, 48 h
M14 = assay: Cytotoxicity against Homo sapiens (human) M14 cells after 48 hr by SRB assay; conditions: M14, 48 h
UACC-62 = assay: Cytotoxicity against Homo sapiens (human) UACC62 cells after 48 hr by SRB assay; conditions: UACC-62, 48 h
OVCAR-4 = assay: Cytotoxicity against Homo sapiens (human) OVCAR4 cells after 48 hr by SRB assay; conditions: OVCAR-4, 48 h

## O=C1CS/C(=N\S(=O)(=O)c2ccc(N3N=C4c5ccccc5CC4C3c3cccs3)cc2)N(c2ccccc2)C1 (stereo not drawn)
[1]
  GI50: 43.9 µM
  TGI: 96.4 µM
SF-295
  GI50: 32.7 µM
[2]
  GI50: 41.2 µM
  TGI: 79 µM
OVCAR-8
  GI50: 25.4 µM
SK-OV-3
  GI50: > 100 µM
CCRF-CEM
  GI50: 36.8 µM
COLO 205
  GI50: 57.2 µM
DU-145
  GI50: 30.7 µM
U-251
  GI50: 28 µM
SF-268
  Activity: <=32%
NCI-H522
  GI50: 23.8 µM
MCF7 [3]
  GI50: 88.8 µM
CAKI-1
  GI50: 74.5 µM
786-0
  GI50: 22.1 µM
MDA-MB-231
  GI50: 21.4 µM
KM12
  GI50: 28.4 µM
MCF7 [4]
  Activity: <=32%
T47D
  GI50: 69.2 µM
[5]
  GI50: 19.5 µM
  TGI: 82.1 µM
RXF 393
  GI50: 41 µM
[6]
  GI50: 45.3 µM
  TGI: 84.3 µM
SNB-75
  GI50: > 100 µM
IGROV-1
  GI50: 19.5 µM
HCT-15
  GI50: 35.5 µM
[7]
  GI50: 63.2 µM
  TGI: > 100 µM
UO-31
  GI50: 69.3 µM
HOP-62
  GI50: 17.4 µM
EKVX
  GI50: 39.5 µM
[8]
  GI50: 37.8 µM
  TGI: > 100 µM
SW-620
  GI50: 45.2 µM
HOP-92
  GI50: 79.9 µM
NCI-H23
  GI50: 24.2 µM
OVCAR-5
  GI50: 34.5 µM
MDA-MB-435
  GI50: 29.5 µM
UACC-257
  GI50: 42.3 µM
NCI-H460 [9]
  GI50: > 100 µM
NCI-H460 [10]
  Activity: <=32%
A549
  GI50: 47.2 µM
MOLT-4
  GI50: 0.01 µM
HT-29
  GI50: 61 µM
[11]
  GI50: 37.2 µM
  TGI: 66.3 µM
SK-MEL-28
  GI50: > 100 µM
HCC 2998
  GI50: 20.5 µM
M14
  GI50: 39.1 µM
UACC-62
  GI50: 16.1 µM
OVCAR-4
  GI50: > 100 µM
